Where two headings read alike, the source gives them in different places.
Key:
HepG2 cells [1] = test: Cytotoxicity, MTT assay, HepG2 cells; format: cell-based; details: for LLE (lipophilic efficiency): from HepG2 IC50
MCF-7 cells = test: Cytotoxicity, MTT assay, MCF-7 cells; format: cell-based, human; details: from MCF-7 IC50
PIM-1 kinase [2] = target: T1, PIM-1 kinase (Homo sapiens, UniProt P11309); test: PIM-1 kinase inhibitory assay; format: biochemical
THLE2 cells = test: Cytotoxicity, MTT assay, normal THLE2 cells; format: cell-based
caspase 9 = test: Caspase 9 level by ELISA in treated HepG2 cells; format: cell-based, human; details: HepG2 treated at IC50 dose
caspase 3 = test: Caspase 3 level by ELISA in treated HepG2 cells; format: cell-based, human; details: HepG2 treated at IC50 dose, 48 h, control 4.01
HepG2 cells [3] = test: Annexin V/PI staining flow cytometry; format: cell-based; details: HepG2, IC50 dose, 48 h
caspase 8 = test: Caspase 8 level by ELISA in treated HepG2 cells; format: cell-based, human; details: HepG2 treated at IC50 dose, 48 h, control 55.01
PIM-1 kinase [4] = target: T1, PIM-1 kinase; details: previously synthesized compound; ref [40]; cited from earlier work

T1 sequence (P11309 whole entry): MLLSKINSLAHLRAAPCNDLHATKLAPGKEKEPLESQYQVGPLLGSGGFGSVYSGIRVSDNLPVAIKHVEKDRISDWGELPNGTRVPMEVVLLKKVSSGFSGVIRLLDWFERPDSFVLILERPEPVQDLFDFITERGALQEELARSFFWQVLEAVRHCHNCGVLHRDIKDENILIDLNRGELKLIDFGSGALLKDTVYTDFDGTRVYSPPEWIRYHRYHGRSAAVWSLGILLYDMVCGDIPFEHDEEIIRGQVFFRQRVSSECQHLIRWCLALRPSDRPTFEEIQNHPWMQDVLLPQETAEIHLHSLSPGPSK

% of PIM-1 inhibition (PIM-1 kinase [2]) [%]	IC50 (PIM-1 kinase [2]) [nM]	SMILES	LLE (lipophilic efficiency) (HepG2 cells [1])	LLE (lipophilic efficiency) (MCF-7 cells)	other results
83.4 ± 2.3	64.6 ± 0.2	CCOC(=O)Cn1c(-c2ccc(Cl)cc2)cc(-c2ccc(O)c(OC)c2)c(C#N)c1=O [Compound 5, Ethyl 2-(6-(4-chlorophenyl)-3-cyano-4-(4-hydroxy-3-methoxyphenyl)-2-oxopyridin-1(2H)-yl)acetate]	2.93	2.65	–
–	–	N#Cc1cnc2ncncc2c1 [Pyrido[2,3-d] pyrimidine-6-carbonitrile]	–	–	% of PIM-1 inhibition (PIM-1 kinase [4]): 97.8 ± 1.8%
–	–	COc1cc(-c2cc(-c3ccc(Cl)cc3)n(CN(C)C)c(=O)c2C#N)ccc1O [Compound 8, 6-(4-Chlorophenyl)-1-((dimethylamino)methyl)-4-(4-hydroxy-3-methoxyphenyl)-2-oxo-1,2-dihydropyridine-3-carbonitrile]	2.76	2.97	–
87.6 ± 3.2	34.6 ± 0.12	COc1cc(-c2cc(-c3ccc(Cl)cc3)n(CC(=O)n3nc(C)cc3C)c(=O)c2C#N)ccc1O [Compound 10, 6-(4-Chlorophenyl)-1-(2-(3,5-dimethyl-1H-pyrazol-1-yl)-2-oxoethyl)-4-(4-hydroxy-3-methoxyphenyl)-2-oxo-1,2-dihydropyridine-3-carbonitrile]	–	–	–

SMILES	% of PIM-1 inhibition (PIM-1 kinase [2]) [%]	IC50 (PIM-1 kinase [2]) [nM]	LLE (lipophilic efficiency) (HepG2 cells [1])	LLE (lipophilic efficiency) (MCF-7 cells)	other results
COc1cc(-c2cc(-c3ccc(Cl)cc3)n(CC(=O)NN)c(=O)c2C#N)ccc1O [Compound 9, 2-(6-(4-Chlorophenyl)-3-cyano-4-(4-hydroxy-3-methoxyphenyl)-2-oxopyridin-1(2H)-yl)acetohydrazide]	98.8 ± 1.9	8.4 ± 0.2	5.60	5.41	maximum cell growth inhibition (THLE2 cells): 13%; selectivity for caspase-9 compared to caspase-3 and caspase-8 (caspase 9): ~2.6 fold; Concentration Caspase 9 (caspase 9; 48 h, ELISA, control 43.33): 112.6 ng/mL; percentage of cell growth (inhibition) (HepG2 cells [1]; HepG2, maximal concentration): 94%; Concentration Caspase 3 (caspase 3): 9.8 ng/mL; early apoptosis (HepG2 cells [3]): 15.2%; late apoptosis (HepG2 cells [3]): 37.5%; necrosis cell death (HepG2 cells [3]): failed to enhance necrosis cell death; total apoptotic cell death vs untreated control (HepG2 cells [3]): 175 times; total apoptosis (HepG2 cells [3]; untreated 0.30%): 52.7%; Concentration Caspase 8 (caspase 8): 74.4 ng/mL
